In US5216005A, “Immunosuppressive analogues and derivatives of succinylacetone” (priority 1990, dated 1993):

Tests used:
[1] = tested on: IFN-γ (human lymphoid cells); test: IFN-γ production in primary mixed lymphocyte reaction (WISH cells/EMC virus assay); format: cell-based; parameters: IFN-γ: unit not given here; conditions: for IFN-γ: 1° MLR
Procedure: Derivatives of succinylacetone were tested for immunosuppressive activity in several different types of assay systems. The first consisted of measuring the amounts of interleukin-2 (IL-2), and interferon-γ (IFN-γ) produced by human lymphoid cells in a mixed lymphocyte reaction. Low levels of these molecules in the reaction mixture indicate that the immune system is being suppressed by the subject succinylacetone derivatives.
IFN-γ was determined by measuring the amount of protection conveyed on human WISH cells against the cytopathic effects of encephalomyocarditis virus (EMC). This assay is described by I. A. Braude, J. of Immunol. Methods 63:237 (1983). Both publications are hereby incorporated by reference.
(§1) The mixed lymphocyte reaction assay can be carried out by techniques well known to those skilled in the art. L. Hudson and F. C. Huy, Practical Immunology, p. 260, Blackwell Scientific Publications (1976). Briefly this consists of isolating lymphocytes from human peripheral blood by standard density gradient centrifugation techniques from two separate individuals. Approximately 2×10^5 lymphocytes of each individual are combined to yield a total of 4×10^5 lymphocytes per culture. All procedures are carried out under sterile conditions, and the lymphocytes are isolated and kept in physiologically compatible solutions. To the mixture of lymphocytes is added a desired amount of an appropriate succinylacetone derivative, and after different times an aliquot of the mixture is removed and assayed for IL-2 or IFN-γ, or ^3 H-T is measured.

[2] = tested on: peripheral blood lymphocytes; test: viability of peripheral blood lymphocytes with or without PHA, trypan blue exclusion; format: cell-based, human
Procedure: Viability was determined using the trypan blue exclusion method well known in the art. […] The assays were conducted in duplicate wherein peripheral blood lymphocytes were isolated from two separate individuals, and then treated with or without phytohemagglutinin in the presence of various concentrations of the appropriate succinylacetone derivative.

[3] = tested on: adjuvant induced arthritis; test: adjuvant induced arthritis in rats, overall arthritis score; intraarticular right paw, per kg: succinylacetone 325 μg, methyl ester 150 μg, 4-acetyl-5-oxohexanoate 560 μg; format: in vivo, rat
[4] = tested on: IL-2 (human lymphoid cells); test: IL-2 production in primary mixed lymphocyte reaction (HT-2 cell assay); format: cell-based; parameters: IL-2: unit not given here; conditions: for IL-2: 1° MLR
Procedure: as §1, with “Derivatives of succinylacetone were tested for immunosuppressive activity in several different types of assay systems. The first consisted of measuring the amounts of interleukin-2 (IL-2), and interferon-γ (IFN-γ) produced by human lymphoid cells in a mixed lymphocyte reaction. Low levels of these molecules in the reaction mixture indicate that the immune system is being suppressed by the subject succinylacetone derivatives. IL-2 was measured by enumerating the number of viable HT-2 cells found after an 18-24 hours period. HT-2 cells are a mouse IL-2 dependent cell line which die in the absence of IL-2. The assay is described by Gillis et al., J. of Immunol. […] The” for “The”, “260, Blackwell Scientific Publications (1976).” left out, “^[…]” for “^3 H-T”

With `COC(=O)CCC(C(C)=O)C(C)=O` [Methyl 4-Acetyl-5-Oxohexanoate, methyl 4-acetyl-5-oxohexanoate] the IFN-γ ([1]; Exp I, 3 μM) was 1260, the IFN-γ ([1]; Exp I, 9 μM) was 1260 and the IFN-γ ([1]; Exp I, 27 μM) was 1260. For the same compound, the IFN-γ ([1]; Exp I, 81 μM) was 1313, the IFN-γ ([1]; Exp I, 244 μM) was 998 and the IFN-γ ([1]; Exp I, 733 μM) was 570. It also gave an IFN-γ ([1]; Exp I, 2.2 mM) of 285, an IFN-γ ([1]; Exp I, 6.7 mM) of less than 285 and an IFN-γ ([1]; Exp I, 20 mM) of less than 285. It also gave an IFN-γ ([1]; Exp II, 3 μM) of 1144, an IFN-γ ([1]; Exp II, 9 μM) of 1248 and an IFN-γ ([1]; Exp II, 27 μM) of 1248. The IFN-γ ([1]; Exp II, 81 μM) was 1560, the IFN-γ ([1]; Exp II, 244 μM) was 1953 and the IFN-γ ([1]; Exp II, 733 μM) was 1172. It also gave an IFN-γ ([1]; Exp II, 2.2 mM) of 703, an IFN-γ ([1]; Exp II, 6.7 mM) of less than 469 and an IFN-γ ([1]; Exp II, 20 mM) of less than 469. The IC50 ([1]; Homo sapiens, Lymphocyte, primary MLR, read-out: concentration causing 50% reduction in IFN-γ production) was roughly 2200 µM, the toxicity ([2]; as high as 20 mM) was “no toxicity” and the Cells/ml ([2]; first individual, (+) PHA, 3 μM) was 0.45 X 10^6 Cells/ml. The Cells/ml ([2]; first individual, (+) PHA, 9 μM) was 0.47 X 10^6 Cells/ml, the Cells/ml ([2]; first individual, (+) PHA, 27 μM) was 0.46 X 10^6 Cells/ml and the Cells/ml ([2]; first individual, (+) PHA, 81 μM) was 0.38 X 10^6 Cells/ml. For the same compound, the Cells/ml ([2]; first individual, (+) PHA, 244 μM) was 0.44 X 10^6 Cells/ml, the Cells/ml ([2]; first individual, (+) PHA, 733 μM) was 0.38 X 10^6 Cells/ml and the Cells/ml ([2]; first individual, (+) PHA, 2.2 mM) was 0.49 X 10^6 Cells/ml. The Cells/ml ([2]; first individual, (+) PHA, 6.7 mM) was 0.46 X 10^6 Cells/ml, the Cells/ml ([2]; first individual, (+) PHA, 20 mM) was 0.49 X 10^6 Cells/ml and the Cells/ml ([2]; first individual, (-) PHA, 3 μM) was 0.39 X 10^6 Cells/ml. For the same compound, the Cells/ml ([2]; first individual, (-) PHA, 9 μM) was 0.55 X 10^6 Cells/ml, the Cells/ml ([2]; first individual, (-) PHA, 27 μM) was 0.44 X 10^6 Cells/ml and the Cells/ml ([2]; first individual, (-) PHA, 81 μM) was 0.42 X 10^6 Cells/ml. For the same compound, the Cells/ml ([2]; first individual, (-) PHA, 244 μM) was 0.40 X 10^6 Cells/ml, the Cells/ml ([2]; first individual, (-) PHA, 733 μM) was 0.37 X 10^6 Cells/ml and the Cells/ml ([2]; first individual, (-) PHA, 2.2 mM) was 0.57 X 10^6 Cells/ml. For the same compound, the Cells/ml ([2]; first individual, (-) PHA, 6.7 mM) was 0.57 X 10^6 Cells/ml, the Cells/ml ([2]; first individual, (-) PHA, 20 mM) was 0.5 X 10^6 Cells/ml and the Cells/ml ([2]; second individual, (+) PHA, 3 μM) was 0.40 X 10^6 Cells/ml. The Cells/ml ([2]; second individual, (+) PHA, 9 μM) was 0.50 X 10^6 Cells/ml, the Cells/ml ([2]; second individual, (+) PHA, 27 μM) was 0.50 X 10^6 Cells/ml and the Cells/ml ([2]; second individual, (+) PHA, 81 μM) was 0.40 X 10^6 Cells/ml. For the same compound, the Cells/ml ([2]; second individual, (+) PHA, 244 μM) was 0.54 X 10^6 Cells/ml, the Cells/ml ([2]; second individual, (+) PHA, 733 μM) was 0.40 X 10^6 Cells/ml and the Cells/ml ([2]; second individual, (+) PHA, 2.2 mM) was 0.50 X 10^6 Cells/ml. The Cells/ml ([2]; second individual, (+) PHA, 6.7 mM) was 0.50 X 10^6 Cells/ml, the Cells/ml ([2]; second individual, (+) PHA, 20 mM) was 0.55 X 10^6 Cells/ml and the Cells/ml ([2]; second individual, (-) PHA, 3 μM) was 0.44 X 10^6 Cells/ml. The Cells/ml ([2]; second individual, (-) PHA, 9 μM) was 0.52 X 10^6 Cells/ml, the Cells/ml ([2]; second individual, (-) PHA, 27 μM) was 0.50 X 10^6 Cells/ml and the Cells/ml ([2]; second individual, (-) PHA, 81 μM) was 0.46 X 10^6 Cells/ml. The Cells/ml ([2]; second individual, (-) PHA, 244 μM) was 0.5 X 10^6 Cells/ml, the Cells/ml ([2]; second individual, (-) PHA, 733 μM) was 0.41 X 10^6 Cells/ml and the Cells/ml ([2]; second individual, (-) PHA, 2.2 mM) was 0.54 X 10^6 Cells/ml. The Cells/ml ([2]; second individual, (-) PHA, 6.7 mM) was 0.6 X 10^6 Cells/ml, the Cells/ml ([2]; second individual, (-) PHA, 20 mM) was 0.5 X 10^6 Cells/ml and the overall arthritis score ([3]; Exp. I (treated from same day), day 14) was 3.2 ± 2.2. It also gave an overall arthritis score ([3]; Exp. I (treated from same day), day 16) of 3.4 ± 2.2, an overall arthritis score ([3]; Exp. I (treated from same day), day 18) of 5.0 ± 3.2 and an overall arthritis score ([3]; Exp. I (treated from same day), day 20) of 7.0 ± 4.0. It also gave an overall arthritis score ([3]; Exp. I (treated from same day), day 22) of 8.2 ± 4.9, an overall arthritis score ([3]; Exp. I (treated from same day), day 24) of 7.2 ± 4.2 and an overall arthritis score ([3]; Exp. I (treated from same day), day 26) of 7.2 ± 4.2. It also gave an overall arthritis score ([3]; Exp. II (treated from day 4), day 14) of 1.0 ± 1.4, an overall arthritis score ([3]; Exp. II (treated from day 4), day 16) of 2.2 ± 2.5 and an overall arthritis score ([3]; Exp. II (treated from day 4), day 18) of 1.8 ± 1.8. It also gave an overall arthritis score ([3]; Exp. II (treated from day 4), day 20) of 2.2 ± 2.0, an overall arthritis score ([3]; Exp. II (treated from day 4), day 22) of 5.0 ± 3.5 and an overall arthritis score ([3]; Exp. II (treated from day 4), day 24) of 3.4 ± 3.6. The overall arthritis score ([3]; Exp. II (treated from day 4), day 26) was 4.0 ± 3.7, the overall arthritis score ([3]; Exp. III (treated from day 14), day 14) was 2.0 ± 2.0 and the overall arthritis score ([3]; Exp. III (treated from day 14), day 16) was 2.4 ± 1.5. The overall arthritis score ([3]; Exp. III (treated from day 14), day 18) was 3.4 ± 2.6, the overall arthritis score ([3]; Exp. III (treated from day 14), day 20) was 5.6 ± 2.7 and the overall arthritis score ([3]; Exp. III (treated from day 14), day 22) was 7.4 ± 4.8. For the same compound, the overall arthritis score ([3]; Exp. III (treated from day 14), day 24) was 7.4 ± 5.3, the overall arthritis score ([3]; Exp. III (treated from day 14), day 26) was 7.4 ± 5.3 and the effect on arthritis ([3]; comparison of treatment schedules, in words) was “apparently most active when administered every other day from day 4 to day 24”. For the same compound, the IL-2 ([4]; Exp I, 3 μM) was 29, the IL-2 ([4]; Exp I, 9 μM) was 46 and the IL-2 ([4]; Exp I, 27 μM) was 30. It also gave an IL-2 ([4]; Exp I, 81 μM) of 42, an IL-2 ([4]; Exp I, 244 μM) of 17 and an IL-2 ([4]; Exp I, 733 μM) of 17. For the same compound, the IL-2 ([4]; Exp I, 2.2 mM) was 9, the IL-2 ([4]; Exp I, 6.7 mM) was less than 6 and the IL-2 ([4]; Exp I, 20 mM) was less than 6. It also gave an IL-2 ([4]; Exp II, 3 μM) of 70, an IL-2 ([4]; Exp II, 9 μM) of 85 and an IL-2 ([4]; Exp II, 27 μM) of 52. For the same compound, the IL-2 ([4]; Exp II, 81 μM) was 70, the IL-2 ([4]; Exp II, 244 μM) was 52 and the IL-2 ([4]; Exp II, 733 μM) was 70. It also gave an IL-2 ([4]; Exp II, 2.2 mM) of 35, an IL-2 ([4]; Exp II, 6.7 mM) of less than 12 and an IL-2 ([4]; Exp II, 20 mM) of less than 12. It also gave an IC50 ([4]; Homo sapiens, HT2, primary MLR, read-out: concentration causing 50% reduction in IL-2 production) of roughly 2200 µM.
